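Cultured in 96-well plates, cells were exposed to test compound for 48 hours across five concentrations. At the GI50, growth is halved.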 Active and inactive are the calls of the source. Cut-off read from the data, not from the text of the source: active = GI50 up to about 1.1 µM and inactive = higher.

Some test systems named below: SF-268; HCT-116; SN12C; EKVX; U-251; OVCAR-8; SK-MEL-28; SF-295; PC-3; TK-10; MCF7; 786-0; SR; NCI-H460; Hs-578T; HCC 2998; SNB-75; HOP-92; NCI-H23; ACHN.
What all share (test): NCI-60 cell line screen, 48 h

`COc1ccc2[nH]c3c4c(ccc3c2c1)C(=O)C=CC4=O`: the GI50 with SF-268 was 17.1 µM (inactive); in the experiment with HCT-116, 3.62 µM (inactive); with SN12C, 11 µM (inactive); with EKVX, 16.4 µM (inactive); in the experiment on U-251 it was 17.1 µM (inactive); with OVCAR-8, 5.22 µM (inactive). Further, the GI50 with SK-MEL-28 is 8.2 µM (inactive); with SF-295 it was 24.7 µM (inactive); in the experiment on PC-3, 18.7 µM (inactive); in the experiment on TK-10, 14.6 µM (inactive); in the experiment on MCF7, 10.8 µM (inactive); in the experiment on 786-0, 11.4 µM (inactive). The GI50 was 0.333 µM (active) with SR; 24.8 µM (inactive) in the experiment on NCI-H460; 24.3 µM (inactive) with Hs-578T; 22.5 µM (inactive) with HCC 2998; 18.8 µM (inactive) in the experiment on SNB-75; 3.34 µM (inactive) in the experiment on HOP-92. Further, the values for the GI50 with NCI-H23 and with ACHN were 12.7 µM (inactive) and 4.76 µM (inactive), respectively.
Regarding `NS(=O)(=O)c1ccc(NC2(C(=O)O)CCCC2)cc1`, the GI50 in the experiment on SF-268, in the experiment with HCT-116, in the experiment on SN12C, in the experiment with EKVX, in the experiment with U-251 and in the experiment on OVCAR-8 was > 100 µM (inactive) in each case. Moreover, the GI50 in the experiment with SK-MEL-28, in the experiment on SF-295, with PC-3, with TK-10, in the experiment with MCF7 and in the experiment with 786-0 was > 100 µM (inactive) in each case. The GI50 in the experiment with SR, with NCI-H460, in the experiment on Hs-578T, in the experiment on HCC 2998, in the experiment on SNB-75 and with HOP-92 was > 100 µM (inactive) each time. The GI50 with NCI-H23 and in the experiment with ACHN was > 100 µM (inactive) in each case.
Turning to `CCOc1c(OC)cc(CNNc2nccs2)cc1OC`, the GI50 with SF-268 was > 100 µM (inactive); in the experiment on HCT-116 it was > 100 µM (inactive); in the experiment with SN12C it was > 100 µM (inactive); in the experiment on EKVX, 19.3 µM (inactive); in the experiment with U-251 it was 32.7 µM (inactive); in the experiment with OVCAR-8, > 100 µM (inactive). In addition, the GI50 in the experiment on SK-MEL-28 was > 100 µM (inactive); with SF-295, > 100 µM (inactive); in the experiment on PC-3, 41.9 µM (inactive); in the experiment with TK-10 it was > 100 µM (inactive); with MCF7, > 100 µM (inactive); in the experiment on 786-0 it was > 100 µM (inactive). Further, the GI50 in the experiment with SR is 29.5 µM (inactive); in the experiment with NCI-H460, 27 µM (inactive); with Hs-578T, > 100 µM (inactive); in the experiment on HCC 2998 it was > 100 µM (inactive); with SNB-75, 34.8 µM (inactive); in the experiment on HOP-92, 67.6 µM (inactive). The GI50 in the experiment with NCI-H23 was 62.4 µM (inactive); with ACHN, > 100 µM (inactive).
For `COc1cc2cc(C(=O)N3CC(CCl)c4c3cc(NC(=O)OCc3ccc([N+](=O)[O-])cc3)c3ccccc43)[nH]c2c(OC)c1OC` (stereo not given), the GI50 in the experiment on SF-268 was 24.6 µM (inactive); with HCT-116 it was 14.7 µM (inactive); in the experiment on SN12C, > 100 µM (inactive); in the experiment on EKVX, 43 µM (inactive); in the experiment with U-251, 38.5 µM (inactive); in the experiment with OVCAR-8, 1.1 µM (active). Further, the GI50 with SK-MEL-28 is > 100 µM (inactive); in the experiment with SF-295, 17.2 µM (inactive); with PC-3, > 60 µM (inactive); with TK-10, 0.327 µM (active); with MCF7, 36.1 µM (inactive); with 786-0, 0.785 µM (active). For the same molecule, the GI50 is 0.0432 µM (active) with SR; < 0.0173 µM (active) with NCI-H460; > 53.1 µM (inactive) with Hs-578T; 0.0226 µM (active) in the experiment with HCC 2998; 20.5 µM (inactive) with SNB-75; > 45.7 µM (inactive) with HOP-92. The values for the GI50 with NCI-H23 and with ACHN were 0.158 µM (active) and < 0.0116 µM (active), respectively.

For the origin of these results see ChEMBL document CHEMBL1201862, “PubChem BioAssay data set” (2004).
